Measurements from patent US11566057B2, “Long-acting co-agonists of the glucagon and GLP-1 receptors” (Merck Sharp & Dohme Corp., priority 2017, dated 2023).
Where two headings read alike, the source gives them in different places. Numbered stars: 1 amine (or outer) side, 2 acyl side, 3 side chain; on linkers, the order of the positions; unused ones are H or OH. Square brackets hold non-standard residues; d marks the D form. Side chains are listed from the residue outwards. Peptide text beside a SMILES is read from it. * marks the point of attachment. C20 diacid = O=C(O)CCCCCCCCCCCCCCCCCCC(=O)*; Phe(4-CH2NH2) = NCc1ccc(C[C@H](N)C(=O)O)cc1; C18 diacid = O=C(O)CCCCCCCCCCCCCCCCC(=O)*; γGlu = O=C(O)[C@H](CCC(=O)[*:2])N[*:1]; Met(O2) = CS(=O)(=O)CC[C@H](N)C(=O)O; αMeD = C[C@](N)(CC(=O)O)C(=O)O; AEEA = NCCOCCOCC(=O)O; Aib = CC(C)(N)C(=O)O

Tests used:
[1] = biological target: T1, human GLP1R (Homo sapiens, UniProt P43220); experiment: cAMP activity assay at the GLP-1 receptor (GLP1R); format: cell-based
T1 construct: expressed in transfected cells; growth medium holds Blasticidin and Hygromycin
Method: Activity of the peptides at the Glucagon receptor (GCGR) and GLP-1 receptor (GLP1R) was measured in a cAMP activity assay.
GCG/GLP-1 receptor co-agonist peptides were dissolved in 100% DMSO (dimethyl sulfoxide) and serially diluted to generate 10 point titrations. The peptide solutions were then transferred into 384-well assay plates (150 nL/well). Assay ready frozen cells expressing human GLP1R or human GCGR were suspended in growth media consisting of DMEM medium (GIBCO®), 10% FBS (GIBCO®), 1×NEAA(GIBCO®), 1×P/S (GIBCO®), 10 ug/mL Blasticidin (GIBCO®) and 200 μg/mL Hygromycin (GIBCO®). […] The cell suspensions (15 μL) were then added to the assay plates containing the peptide solutions (30,000 cells/well for human GCGR; 10,000 cells/well for human GLP1R). The cells were incubated for 1 hour at room temperature in the dark. Production of cAMP was determined using HitHunter™ cAMPXS kits (DiscoverX) following manufacturer protocol. The plates were incubated for overnight at room temperature in the dark. Luminescence was measured using an EnVision Multilabel plate reader (Perkin Elmer). Native GLP-1 and Glucagon (Bachem) are used as control peptides. EC50 values were calculated using uses a 4 parameter logistic fit based on the Levenberg-Marquardt algorithm.

[2] = biological target: T2, human GCGR (Homo sapiens, UniProt P47871); experiment: cAMP activity assay at the Glucagon receptor (GCGR); format: cell-based; conditions: for hGCGR/hGLP1R (hTone): ratio of GCGR EC50 to GLP1R EC50
T2 construct: expressed in transfected cells; growth medium holds Blasticidin and Hygromycin
How it was run: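 Peptides serially diluted from DMSO (10 points) and added to frozen-stock cells bearing human GLP1R (10,000 cells/well) or GCGR (30,000 cells/well), 1 h at RT, dark. EC50 by four-parameter logistic fit of HitHunter cAMPXS luminescence, read following overnight RT incubation.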

[3] = cells expressing human GLP1R, cAMP production, buffer with or without 20% human serum (not stated which), read-out: GLP1R EC50 human
[4] = summary statement: EC50 at each of the glucagon and GLP-1 receptors, read-out: EC50 at the GLP-1 receptor
[5] = summary statement: EC50 at each of the glucagon and GLP-1 receptors, read-out: EC50 at the glucagon receptor
[6] = cells expressing human GCGR, cAMP production, buffer with or without 20% human serum (not stated which), read-out: GCGR EC50 human

T2 sequence (P47871 26-477): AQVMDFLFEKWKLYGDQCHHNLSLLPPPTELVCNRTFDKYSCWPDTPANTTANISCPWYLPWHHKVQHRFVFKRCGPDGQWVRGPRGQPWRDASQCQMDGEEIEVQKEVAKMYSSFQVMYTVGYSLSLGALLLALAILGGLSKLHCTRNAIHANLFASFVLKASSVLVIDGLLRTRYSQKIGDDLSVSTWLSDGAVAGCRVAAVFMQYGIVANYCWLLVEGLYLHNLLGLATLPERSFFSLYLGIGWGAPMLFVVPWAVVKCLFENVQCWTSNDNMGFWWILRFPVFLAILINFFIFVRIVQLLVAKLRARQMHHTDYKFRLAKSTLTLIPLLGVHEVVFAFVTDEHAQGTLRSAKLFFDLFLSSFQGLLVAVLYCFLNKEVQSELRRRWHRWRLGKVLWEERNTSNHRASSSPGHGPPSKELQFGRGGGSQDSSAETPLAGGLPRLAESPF
T1 sequence (P43220 24-463): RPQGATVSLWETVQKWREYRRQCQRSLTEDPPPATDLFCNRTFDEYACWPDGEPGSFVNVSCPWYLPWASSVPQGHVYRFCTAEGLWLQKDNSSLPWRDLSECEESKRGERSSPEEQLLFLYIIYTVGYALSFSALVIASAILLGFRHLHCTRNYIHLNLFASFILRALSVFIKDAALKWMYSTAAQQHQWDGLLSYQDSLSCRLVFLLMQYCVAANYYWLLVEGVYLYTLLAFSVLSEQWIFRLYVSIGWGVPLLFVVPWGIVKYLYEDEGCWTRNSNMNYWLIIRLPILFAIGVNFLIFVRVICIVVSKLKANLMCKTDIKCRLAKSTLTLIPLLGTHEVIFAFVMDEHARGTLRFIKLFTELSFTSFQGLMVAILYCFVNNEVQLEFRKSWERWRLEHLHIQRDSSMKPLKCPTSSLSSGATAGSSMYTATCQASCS

EC50 [1, 3] [nM]	EC50 [1, 4] [nM]	hGCGR/hGLP1R (hTone) [2]	EC50 [2, 5] [nM]	EC50 [2, 6] [nM]	Structure (SMILES)
> 20	< 5	0.2	< 5		CC(C)C[C@H](NC(=O)[C@H](Cc1ccc(O)cc1)NC(=O)[C@H](CCCCN)NC(=O)[C@H](CO)NC(=O)[C@H](Cc1ccc(O)cc1)NC(=O)[C@H](CC(=O)O)NC(=O)[C@H](CO)NC(=O)[C@H](Cc1ccccc1)NC(=O)[C@H](Cc1ccccc1)NC(=O)[C@@H](NC(=O)CNC(=O)[C@H](CCC(N)=O)NC(=O)C(C)(C)NC(=O)[C@@H](N)Cc1c[nH]cn1)[C@@H](C)O)C(=O)N[C@@H](CC(=O)O)C(=O)N[C@@H](C)C(=O)N[C@@H](CCCNC(=N)N)C(=O)N[C@@H](C)C(=O)N[C@@H](C)C(=O)N[C@@H](CCCCNC(=O)COCCOCCNC(=O)COCCOCCNC(=O)CC[C@H](NC(=O)CCCCCCCCCCCCCCCCC(=O)O)C(=O)O)C(=O)N[C@@H](CC(=O)O)C(=O)N[C@@H](Cc1ccccc1)C(=O)N[C@H](C(=O)N[C@@H](CCC(N)=O)C(=O)N[C@@H](Cc1c[nH]c2ccccc12)C(=O)N[C@@H](CC(C)C)C(=O)N[C@@H](CCS(C)(=O)=O)C(=O)N[C@@H](CC(=O)O)C(=O)N[C@H](C(N)=O)[C@@H](C)O)C(C)C [TP595] (H-H[Aib]QGTFFSDYSKYLDARAAK([AEEA-AEEA-γGlu-C18 diacid])DFVQWL[Met(O2)]DT-NH2; N-terminus assumed)
	< 5	0.2	< 5	0.46	CC(C)C[C@H](NC(=O)[C@H](Cc1ccc(O)cc1)NC(=O)[C@H](CCCCN)NC(=O)[C@H](CO)NC(=O)[C@H](Cc1ccc(O)cc1)NC(=O)[C@H](CC(=O)O)NC(=O)[C@H](CO)NC(=O)[C@@H](NC(=O)[C@H](Cc1ccccc1)NC(=O)[C@@H](NC(=O)CNC(=O)[C@H](CCC(N)=O)NC(=O)C(C)(C)NC(=O)[C@@H](N)Cc1c[nH]cn1)[C@@H](C)O)[C@@H](C)O)C(=O)N[C@@H](CC(=O)O)C(=O)N[C@@H](C)C(=O)N[C@@H](CCCNC(=N)N)C(=O)N[C@@H](C)C(=O)N[C@@H](C)C(=O)N[C@@H](Cc1ccc(CNC(=O)COCCOCCNC(=O)CC[C@H](NC(=O)CCCCCCCCCCCCCCCCC(=O)O)C(=O)O)cc1)C(=O)N[C@@H](CC(=O)O)C(=O)N[C@@H](Cc1ccccc1)C(=O)N[C@H](C(=O)N[C@@H](CCC(N)=O)C(=O)N[C@@H](Cc1c[nH]c2ccccc12)C(=O)N[C@@H](CC(C)C)C(=O)N[C@@H](CC(C)C)C(=O)N[C@@H](CC(=O)O)C(=O)N[C@H](C(N)=O)[C@@H](C)O)C(C)C [TP635] (H-H[Aib]QGTFTSDYSKYLDARAA[Phe(4-CH2NH2)]([AEEA-γGlu-C18 diacid])DFVQWLLDT-NH2)
	< 5	0.3	< 5	0.25	CC(C)C[C@H](NC(=O)[C@H](Cc1ccc(O)cc1)NC(=O)[C@H](CCCCN)NC(=O)[C@H](CO)NC(=O)[C@H](Cc1ccc(O)cc1)NC(=O)[C@H](CC(=O)O)NC(=O)[C@H](CO)NC(=O)[C@@H](NC(=O)[C@H](Cc1ccccc1)NC(=O)[C@@H](NC(=O)CNC(=O)[C@H](CCC(N)=O)NC(=O)C(C)(C)NC(=O)[C@@H](N)Cc1c[nH]cn1)[C@@H](C)O)[C@@H](C)O)C(=O)N[C@@H](CC(=O)O)C(=O)N[C@@H](C)C(=O)N[C@@H](CCCNC(=N)N)C(=O)N[C@@H](C)C(=O)N[C@@H](C)C(=O)N[C@@H](Cc1ccc(CNC(=O)COCCOCCNC(=O)COCCOCCNC(=O)COCCOCCNC(=O)CC[C@H](NC(=O)CCCCCCCCCCCCCCCCC(=O)O)C(=O)O)cc1)C(=O)N[C@@H](CC(=O)O)C(=O)N[C@@H](Cc1ccccc1)C(=O)N[C@H](C(=O)N[C@@H](CCC(N)=O)C(=O)N[C@@H](Cc1c[nH]c2ccccc12)C(=O)N[C@@H](CC(C)C)C(=O)N[C@@H](CC(C)C)C(=O)N[C@@H](CC(=O)O)C(=O)N[C@H](C(N)=O)[C@@H](C)O)C(C)C [TP678] (H-H[Aib]QGTFTSDYSKYLDARAA[Phe(4-CH2NH2)]([AEEA-AEEA-AEEA-γGlu-C18 diacid])DFVQWLLDT-NH2; N-terminus assumed)
	< 5	1.4	< 5	0.35	CC(C)C[C@H](NC(=O)[C@H](Cc1ccc(O)cc1)NC(=O)[C@H](CCCCN)NC(=O)[C@H](CO)NC(=O)[C@H](Cc1ccc(O)cc1)NC(=O)[C@H](CC(=O)O)NC(=O)[C@H](CO)NC(=O)[C@@H](NC(=O)[C@H](Cc1ccccc1)NC(=O)[C@@H](NC(=O)CNC(=O)[C@H](CCC(N)=O)NC(=O)C(C)(C)NC(=O)[C@@H](N)Cc1c[nH]cn1)[C@@H](C)O)[C@@H](C)O)C(=O)N[C@@H](CC(=O)O)C(=O)N[C@@H](C)C(=O)N[C@@H](CCCNC(=N)N)C(=O)N[C@@H](C)C(=O)N[C@@H](C)C(=O)N[C@@H](CCC(N)=O)C(=O)N[C@@H](CCC(=O)O)C(=O)N[C@@H](Cc1ccccc1)C(=O)N[C@H](C(=O)N[C@@H](CCCCNC(=O)COCCOCCNC(=O)COCCOCCNC(=O)CC[C@H](NC(=O)CCCCCCCCCCCCCCCCC(=O)O)C(=O)O)C(=O)N[C@@H](Cc1c[nH]c2ccccc12)C(=O)N[C@@H](CC(C)C)C(=O)N[C@@H](CCS(C)(=O)=O)C(=O)N[C@@H](CC(=O)O)C(=O)N[C@H](C(N)=O)[C@@H](C)O)C(C)C [TP702] (H-H[Aib]QGTFTSDYSKYLDARAAQEFVK([AEEA-AEEA-γGlu-C18 diacid])WL[Met(O2)]DT-NH2; N-terminus assumed)
	< 5	1.4	< 5		CC(C)C[C@H](NC(=O)[C@H](Cc1ccc(O)cc1)NC(=O)[C@H](CCCCN)NC(=O)[C@H](CO)NC(=O)[C@H](Cc1ccc(O)cc1)NC(=O)[C@H](CC(=O)O)NC(=O)[C@H](CO)NC(=O)[C@@H](NC(=O)[C@H](Cc1ccccc1)NC(=O)[C@@H](NC(=O)CNC(=O)[C@H](CCC(N)=O)NC(=O)C(C)(C)NC(=O)[C@@H](N)Cc1c[nH]cn1)[C@@H](C)O)[C@@H](C)O)C(=O)N[C@@H](CC(=O)O)C(=O)N[C@@H](C)C(=O)N[C@@H](CCCNC(=N)N)C(=O)N[C@@H](C)C(=O)N[C@@H](C)C(=O)N[C@@H](CCCCNC(=O)COCCOCCNC(=O)CC[C@H](NC(=O)CCCCCCCCCCCCCCCCCCC(=O)O)C(=O)O)C(=O)N[C@@H](CC(=O)O)C(=O)N[C@@H](Cc1ccccc1)C(=O)N[C@H](C(=O)N[C@@H](CCC(N)=O)C(=O)N[C@@H](Cc1c[nH]c2ccccc12)C(=O)N[C@@H](CC(C)C)C(=O)N[C@@H](CCS(C)(=O)=O)C(=O)N[C@@](C)(CC(=O)O)C(=O)N[C@H](C(N)=O)[C@@H](C)O)C(C)C [TP629] (H-H[Aib]QGTFTSDYSKYLDARAAK([AEEA-γGlu-C20 diacid])DFVQWL[Met(O2)][αMeD]T-NH2; N-terminus assumed)
0.52	< 5	0.2	< 5		CC(C)C[C@H](NC(=O)[C@H](Cc1ccc(O)cc1)NC(=O)[C@H](CCCCN)NC(=O)[C@H](CO)NC(=O)[C@H](Cc1ccc(O)cc1)NC(=O)[C@H](CC(=O)O)NC(=O)[C@H](CO)NC(=O)[C@@H](NC(=O)[C@H](Cc1ccccc1)NC(=O)[C@@H](NC(=O)CNC(=O)[C@H](CCC(N)=O)NC(=O)C(C)(C)NC(=O)[C@@H](N)Cc1c[nH]cn1)[C@@H](C)O)[C@@H](C)O)C(=O)N[C@@H](CC(=O)O)C(=O)N[C@@H](C)C(=O)N[C@@H](CCCNC(=N)N)C(=O)N[C@@H](C)C(=O)N[C@@H](C)C(=O)N[C@@H](Cc1ccc(CNC(=O)COCCOCCNC(=O)COCCOCCNC(=O)CC[C@H](NC(=O)CCCCCCCCCCCCCCCCC(=O)O)C(=O)O)cc1)C(=O)N[C@@H](CC(=O)O)C(=O)N[C@@H](Cc1ccccc1)C(=O)N[C@H](C(=O)N[C@@H](CCC(N)=O)C(=O)N[C@@H](Cc1c[nH]c2ccccc12)C(=O)N[C@@H](CC(C)C)C(=O)N[C@@H](CCS(C)(=O)=O)C(=O)N[C@@](C)(CC(=O)O)C(=O)N[C@H](C(N)=O)[C@@H](C)O)C(C)C [TP636] (H-H[Aib]QGTFTSDYSKYLDARAA[Phe(4-CH2NH2)]([AEEA-AEEA-γGlu-C18 diacid])DFVQWL[Met(O2)][αMeD]T-NH2; N-terminus assumed)
